Data as given in patent publication US20230085307A1, “PYRIDAZINONE COMPOUND AND HERBICIDE” (NISSAN CHEMICAL CORPORATION, priority 2019, published 2023).

Key:
barnyard grass [1] = experiment: Test Example 4: herbicidal effect by soil treatment (Table 19, symbol H); format: in vivo, barnyard grass (Echinochloa crus-galli); settings: amount of applied herbicide 320 g/ha
In short: (§1)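 In this soil treatment, the formulated compound reached the seeds only through the soil: seeds were buried about 1.5 cm deep in sterilized diluvial soil, then the diluted emulsion was sprayed over the surface. After three weeks at 25° C. to 30° C. in a greenhouse, effects were graded on criteria from an earlier test.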

late watergrass [2] = experiment: Test Example 1: herbicidal activity, application before weed generation under submerged conditions (Table 16, symbol A); format: in vivo, late watergrass (Echinochloa oryzicola); settings: amount of applied herbicide 320 g/ha
In short: (§2)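 Submerged Wagner pots (alluvial soil, 4 cm water) sown with weed seeds and planted with 2.5-leaf rice seedlings; emulsifiable concentrate diluted in water applied to water surface on sowing day. Held in greenhouse at 25-30 °C; injury scored 0-5 by herbicidal rate after three weeks.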

Japanese bulrush [3] = experiment: Test Example 2: herbicidal activity, application during weed generation under submerged conditions (Table 17, symbol B); format: in vivo, Japanese bulrush (Schoenoplectus juncoides); settings: AAH 320 g/ha; application during weed generation, submerged conditions
In short: (§3)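 Effect on each weed is rated three weeks post-treatment, using the same scoring criteria as the preceding test. Plants grow from mixed-sown seed in flooded alluvial soil (4 cm water) at 25° C. to 30° C., and are treated at one to two leaves with diluted emulsion dropped onto the water.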

oval-leafed pondweed [4] = experiment: Test Example 1: herbicidal activity, application before weed generation under submerged conditions (Table 16, symbol C); format: in vivo, oval-leafed pondweed (Monochoria vaginalis); settings: amount of applied herbicide 320 g/ha
In short: as §2

velvetleaf [5] = experiment: Test Example 4: herbicidal effect by soil treatment (Table 19, symbol M); format: in vivo, velvetleaf (Abutilon theophrasti); settings: amount of applied herbicide 320 g/ha
In short: as §1

Chinese sprangletop = experiment: Test Example 3: herbicidal effect by foliage application, Wagner pot (Table 18, symbol D); format: in vivo, chinese sprangletop (Leptochloa chinensis); settings: for herbicidal effect on D: Chinese sprangletop: amount of applied herbicide 320 g/ha
In short: (§4)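 Plants were sown in alluvial soil held under 0.1–0.5 cm standing water and grown 14 days in a greenhouse at 25–30 °C. An emulsifiable formulation, water-diluted to the set dose, was then sprayed onto the foliage, and effects were scored three weeks later using previously defined criteria.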

lambsquarters [6] = experiment: Test Example 4: herbicidal effect by soil treatment (Table 19, symbol O); format: in vivo, lambsquarters (Chenopodium album); settings: amount of applied herbicide 320 g/ha
In short: as §1

Japanese bulrush [7] = experiment: Test Example 1: herbicidal activity, application before weed generation under submerged conditions (Table 16, symbol B); format: in vivo, Japanese bulrush (Schoenoplectus juncoides); settings: amount of applied herbicide 320 g/ha
In short: as §2

velvetleaf [8] = experiment: Test Example 5: herbicidal effect by foliage application, plastic box (Table 20, symbol M); format: in vivo, velvetleaf (Abutilon theophrasti); settings: foliage application, 320 g/ha, three weeks after application
In short: (§5)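 Plants were sown into sterilized diluvial soil under about 1.5 cm cover and kept in a greenhouse at 25° C. to 30° C. Fourteen days on, foliage received an even spray of the diluted emulsion. Herbicidal or crop effect was judged three weeks afterwards.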

late watergrass [9] = experiment: Test Example 2: herbicidal activity, application during weed generation under submerged conditions (Table 17, symbol A); format: in vivo, late watergrass (Echinochloa oryzicola); settings: AAH 320 g/ha; application during weed generation, submerged conditions
In short: as §3

redroot pigweed [10] = experiment: Test Example 5: herbicidal effect by foliage application, plastic box (Table 20, symbol N); format: in vivo, redroot pigweed (Amaranthus retroflexus); settings: foliage application, 320 g/ha, three weeks after application
In short: as §5

redroot pigweed [11] = experiment: Test Example 4: herbicidal effect by soil treatment (Table 19, symbol N); format: in vivo, redroot pigweed (Amaranthus retroflexus); settings: amount of applied herbicide 320 g/ha
In short: as §1

southern crabgrass [12] = experiment: Test Example 4: herbicidal effect by soil treatment (Table 19, symbol F); format: in vivo, southern crabgrass (Digitaria ciliaris); settings: amount of applied herbicide 320 g/ha
In short: as §1

lambsquarters [13] = experiment: Test Example 5: herbicidal effect by foliage application, plastic box (Table 20, symbol O); format: in vivo, lambsquarters (Chenopodium album); settings: foliage application, 320 g/ha, three weeks after application
In short: as §5

barnyard grass [14] = experiment: Test Example 5: herbicidal effect by foliage application, plastic box (Table 20, symbol H); format: in vivo, barnyard grass (Echinochloa crus-galli); settings: foliage application, 320 g/ha, three weeks after application
In short: as §5

oval-leafed pondweed [15] = experiment: Test Example 2: herbicidal activity, application during weed generation under submerged conditions (Table 17, symbol C); format: in vivo, oval-leafed pondweed (Monochoria vaginalis); settings: AAH 320 g/ha; application during weed generation, submerged conditions
In short: as §3

green foxtail [16] = experiment: Test Example 5: herbicidal effect by foliage application, plastic box (Table 20, symbol G); format: in vivo, green foxtail (Setaria viridis); settings: foliage application, 320 g/ha, three weeks after application
In short: as §5

rice flat sedge = experiment: Test Example 3: herbicidal effect by foliage application, Wagner pot (Table 18, symbol E); format: in vivo, rice flat sedge (Cyperus iria); settings: for herbicidal effect on E: rice flat sedge: amount of applied herbicide 320 g/ha
In short: as §4

barnyard grass [17] = experiment: Test Example 3: herbicidal effect by foliage application, Wagner pot (Table 18, symbol H); format: in vivo, barnyard grass (Echinochloa crus-galli); settings: for herbicidal effect on H: barnyard grass: amount of applied herbicide 320 g/ha
In short: as §4

green foxtail [18] = experiment: Test Example 4: herbicidal effect by soil treatment (Table 19, symbol G); format: in vivo, green foxtail (Setaria viridis); settings: amount of applied herbicide 320 g/ha
In short: as §1

southern crabgrass [19] = experiment: Test Example 5: herbicidal effect by foliage application, plastic box (Table 20, symbol F); format: in vivo, southern crabgrass (Digitaria ciliaris); settings: foliage application, 320 g/ha, three weeks after application
In short: as §5

wild oat = experiment: Test Example 5: herbicidal effect by foliage application, plastic box (Table 20, symbol I); format: in vivo, wild oat (Avena fatua); settings: foliage application, 320 g/ha, three weeks after application
In short: as §5

persian speedwell = experiment: Test Example 5: herbicidal effect by foliage application, plastic box (Table 20, symbol R); format: in vivo, Persian speedwell (Veronica persica); settings: foliage application, 320 g/ha, three weeks after application
In short: as §5

windgrass = experiment: Test Example 5: herbicidal effect by foliage application, plastic box (Table 20, symbol L); format: in vivo, windgrass (Apera spica-venti); settings: foliage application, 320 g/ha, three weeks after application
In short: as §5

Italian ryegrass = experiment: Test Example 5: herbicidal effect by foliage application, plastic box (Table 20, symbol K); format: in vivo, Italian ryegrass (Lolium multiflorum); settings: foliage application, 320 g/ha, three weeks after application
In short: as §5

blackgrass = experiment: Test Example 5: herbicidal effect by foliage application, plastic box (Table 20, symbol J); format: in vivo, blackgrass (Alopecurus myosuroides); settings: foliage application, 320 g/ha, three weeks after application
In short: as §5

Row | SMILES | herbicidal effect, H: barnyard grass (barnyard grass [1]) | Herbicidal effect, A: late watergrass (late watergrass [2]) | herbicidal effect rating, B: Japanese bulrush (Japanese bulrush [3]) | Herbicidal effect, C: oval-leafed pondweed (oval-leafed pondweed [4]) | herbicidal effect, M: velvetleaf (velvetleaf [5]) | herbicidal effect on D: Chinese sprangletop (Chinese sprangletop) | herbicidal effect, O: lambsquarters (lambsquarters [6]) | Herbicidal effect, B: Japanese bulrush (Japanese bulrush [7]) | M: velvetleaf, herbicidal effect grade (velvetleaf [8]) | herbicidal effect rating, A: late watergrass (late watergrass [9]) | N: redroot pigweed, herbicidal effect grade (redroot pigweed [10]) | herbicidal effect, N: redroot pigweed (redroot pigweed [11]) | herbicidal effect, F: southern crabgrass (southern crabgrass [12]) | O: lambsquarters, herbicidal effect grade (lambsquarters [13]) | herbicidal effect rating, C: oval-leafed pondweed (oval-leafed pondweed [15]) | G: green foxtail, herbicidal effect grade (green foxtail [16]) | herbicidal effect on E: rice flat sedge (rice flat sedge) | herbicidal effect on H: barnyard grass (barnyard grass [17]) | herbicidal effect, G: green foxtail (green foxtail [18]) | F: southern crabgrass, herbicidal effect grade (southern crabgrass [19]) | also measured
1 | COCCOc1ccc(-c2sc3ccc(F)cc3c2-c2c(O)c(Cl)nn(C)c2=O)cc1 [2-440] | 3 (Herbicidal rate of 40% or more and less than 70%) | 3 (Herbicidal rate of 40% or more and less than 70%) | 3 (Herbicidal rate of 40% or more and less than 70%) | 3 (Herbicidal rate of 40% or more and less than 70%) | 4 (Herbicidal rate of 70% or more and less than 90%) | 0 (Herbicidal rate of 5% or less (almost no effect)) | 5 (Herbicidal rate of 90% or more (almost completely withered)) | 4 (Herbicidal rate of 70% or more and less than 90%) | 5 (Herbicidal rate of 90% or more (almost completely withered)) | 3 (Herbicidal rate of 40% or more and less than 70%) | 5 (Herbicidal rate of 90% or more (almost completely withered)) | 5 (Herbicidal rate of 90% or more (almost completely withered)) | 3 (Herbicidal rate of 40% or more and less than 70%) | 5 (Herbicidal rate of 90% or more (almost completely withered)) | 3 (Herbicidal rate of 40% or more and less than 70%) | 5 (Herbicidal rate of 90% or more (almost completely withered)) | 0 (Herbicidal rate of 5% or less (almost no effect)) | 5 (Herbicidal rate of 90% or more (almost completely withered)) | 5 (Herbicidal rate of 90% or more (almost completely withered)) | 5 (Herbicidal rate of 90% or more (almost completely withered)) | H: barnyard grass, herbicidal effect grade (barnyard grass [14]): 5 (Herbicidal rate of 90% or more (almost completely withered))
2 | COc1ccc2sc(-c3ccc(Cl)cc3)c(-c3c(O)c(C)nn(C)c3=O)c2c1 [2-450] | 0 (Herbicidal rate of 5% or less (almost no effect)) | 2 (Herbicidal rate of 20% or more and less than 40%) | 2 (Herbicidal rate of 20% or more and less than 40%) | 0 (Herbicidal rate of 5% or less (almost no effect)) | 0 (Herbicidal rate of 5% or less (almost no effect)) | 0 (Herbicidal rate of 5% or less (almost no effect)) | 2 (Herbicidal rate of 20% or more and less than 40%) | 3 (Herbicidal rate of 40% or more and less than 70%) | 5 (Herbicidal rate of 90% or more (almost completely withered)) | 3 (Herbicidal rate of 40% or more and less than 70%) | 5 (Herbicidal rate of 90% or more (almost completely withered)) | 3 (Herbicidal rate of 40% or more and less than 70%) | 0 (Herbicidal rate of 5% or less (almost no effect)) | 5 (Herbicidal rate of 90% or more (almost completely withered)) | 0 (Herbicidal rate of 5% or less (almost no effect)) | 0 (Herbicidal rate of 5% or less (almost no effect)) | 5 (Herbicidal rate of 90% or more (almost completely withered)) | 3 (Herbicidal rate of 40% or more and less than 70%) | 0 (Herbicidal rate of 5% or less (almost no effect)) | 0 (Herbicidal rate of 5% or less (almost no effect)) | 
3 | CCCC(=O)Oc1c(C)nn(C)c(=O)c1-c1c(-c2ccc(F)cc2OC)sc2cc(C)c(C)cc12 [5-102] |  | 4 (Herbicidal rate of 70% or more and less than 90%) | 3 (Herbicidal rate of 40% or more and less than 70%) | 2 (Herbicidal rate of 20% or more and less than 40%) |  |  |  | 3 (Herbicidal rate of 40% or more and less than 70%) |  | 3 (Herbicidal rate of 40% or more and less than 70%) |  |  |  |  | 2 (Herbicidal rate of 20% or more and less than 40%) |  |  |  |  |  | herbicidal effect on Chinese sprangletop (D) (Chinese sprangletop; 320 g/ha): 4 (Herbicidal rate of 70% or more and less than 90%); herbicidal effect on wild oat (I) (wild oat): 0 (Herbicidal rate of 5% or less (almost no effect)); herbicidal effect on velvetleaf (M) (velvetleaf [8]): 3 (Herbicidal rate of 40% or more and less than 70%); herbicidal effect on persian speedwell (R) (persian speedwell): 3 (Herbicidal rate of 40% or more and less than 70%); herbicidal effect on windgrass (L) (windgrass): 2 (Herbicidal rate of 20% or more and less than 40%); herbicidal effect on Italian ryegrass (K) (Italian ryegrass): 3 (Herbicidal rate of 40% or more and less than 70%); herbicidal effect on lambsquarters (O) (lambsquarters [13]): 3 (Herbicidal rate of 40% or more and less than 70%); herbicidal effect on barnyard grass (H) (barnyard grass [14]): 1 (Herbicidal rate of 5% or more and less than 20%); herbicidal effect on blackgrass (J) (blackgrass): 3 (Herbicidal rate of 40% or more and less than 70%); herbicidal effect on green foxtail (G) (green foxtail [16]): 0 (Herbicidal rate of 5% or less (almost no effect)); herbicidal effect on rice flat sedge (E) (rice flat sedge; 320 g/ha): 3 (Herbicidal rate of 40% or more and less than 70%); herbicidal effect on barnyard grass (H) (barnyard grass [17]; 320 g/ha): 4 (Herbicidal rate of 70% or more and less than 90%); herbicidal effect on southern crabgrass (F) (southern crabgrass [19]): 1 (Herbicidal rate of 5% or more and less than 20%)
